Laboratory results taken from patent US20240246934A1, “QUINAZOLINE-BASED COMPOUND, COMPOSITION, AND APPLICATION OF QUINAZOLINE-BASED COMPOUND” (BEIJING SCITECH-MQ PHARMACEUTICALS LIMITED, priority 2021, published 2024).
Like-named read-outs stand apart in the source and are kept apart here.

Columns and labels:
[1] = Brain tissue and whole blood concentration in SD rats after oral administration; format: in vivo; settings: rat, PO 10 mg/kg, 2 h after administration; for Kp at 2 h: brain / whole blood, read-out: Brain tissue/blood ratio
Method: In this assay, the pharmacokinetic characteristics of the compounds of the present application were assayed after administration of some of the compounds of the present application to SD rats by single oral administration and intravenous injection.
2. […] The mixture was stirred, vortexed and/or sonicated. Once a solution was obtained, the vehicle was gradually added to a final volume to reach the target concentration. The solution was vortexed, and sonicated to obtain a homogeneous solution.
Meanwhile, the IV group was not fasted and the PO group was fasted overnight (>12 hrs) and given food 2 hrs after drug administration. All animals had free access to water. The dosing regimen and pharmacokinetic sampling regimen are given in Table 6 and Table 7 below, respectively.
Rats were administered according to the above regimen, and blood and brain tissue samples were collected and processed at predetermined time points (collection and processing were performed according to conventional methods in the art).
The supernatant was diluted 2-fold with ultra-pure water, and the samples were analyzed by LC/MS.
Brain tissues were weighed and homogenized by adding 4-fold homogenizing solution (acetonitrile/water=1/1 v/v). […] The supernatant was diluted 2-fold with ultra-pure water, and the samples were analyzed by LC/MS.

[2] = biological target: Ba/F3 HER2 A775_G776insYVMA cells (Homo sapiens, UniProt P04626, DUP772-775, cells depend on it); assay: Inhibition of cell proliferation, CTG method, Ba/F3 HER2 A775_G776insYVMA; format: cell-based
Chain of Ba/F3 HER2 A775_G776insYVMA cells (P04626 with tags, fused parts or gaps DUP772-775): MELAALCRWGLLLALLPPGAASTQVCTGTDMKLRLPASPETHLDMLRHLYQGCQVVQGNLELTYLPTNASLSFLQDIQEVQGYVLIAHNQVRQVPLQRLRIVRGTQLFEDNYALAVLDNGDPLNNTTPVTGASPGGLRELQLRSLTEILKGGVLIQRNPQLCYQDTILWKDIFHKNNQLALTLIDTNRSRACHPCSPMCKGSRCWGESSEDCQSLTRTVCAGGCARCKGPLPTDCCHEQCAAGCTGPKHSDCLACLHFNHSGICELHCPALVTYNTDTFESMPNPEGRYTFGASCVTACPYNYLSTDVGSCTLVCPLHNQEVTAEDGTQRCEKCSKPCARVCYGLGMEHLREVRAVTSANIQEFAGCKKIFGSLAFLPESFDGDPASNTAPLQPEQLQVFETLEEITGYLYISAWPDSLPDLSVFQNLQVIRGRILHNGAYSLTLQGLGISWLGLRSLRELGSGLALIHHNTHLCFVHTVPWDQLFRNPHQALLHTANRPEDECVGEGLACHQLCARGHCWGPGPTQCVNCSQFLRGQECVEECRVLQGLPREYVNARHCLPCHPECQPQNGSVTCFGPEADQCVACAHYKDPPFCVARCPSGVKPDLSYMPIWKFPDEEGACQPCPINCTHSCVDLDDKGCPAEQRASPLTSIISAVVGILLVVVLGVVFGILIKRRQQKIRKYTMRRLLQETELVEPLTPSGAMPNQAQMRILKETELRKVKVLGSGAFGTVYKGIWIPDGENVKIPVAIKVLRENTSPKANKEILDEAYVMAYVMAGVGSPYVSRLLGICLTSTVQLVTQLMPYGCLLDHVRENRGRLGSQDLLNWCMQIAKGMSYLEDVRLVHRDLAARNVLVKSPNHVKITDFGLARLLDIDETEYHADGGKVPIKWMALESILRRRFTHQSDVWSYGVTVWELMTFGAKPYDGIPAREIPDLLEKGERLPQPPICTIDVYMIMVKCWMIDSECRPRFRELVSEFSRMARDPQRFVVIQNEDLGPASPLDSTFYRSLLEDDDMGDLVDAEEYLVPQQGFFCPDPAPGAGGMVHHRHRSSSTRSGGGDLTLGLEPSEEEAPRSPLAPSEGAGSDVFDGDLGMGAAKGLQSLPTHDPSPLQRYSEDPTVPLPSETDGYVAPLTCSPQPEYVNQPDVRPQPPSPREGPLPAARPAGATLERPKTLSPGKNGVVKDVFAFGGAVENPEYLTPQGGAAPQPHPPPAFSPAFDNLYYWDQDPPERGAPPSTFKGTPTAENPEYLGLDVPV
Summary of the method: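 Ba/F3 HER2 A775_G776insYVMA cells in RPMI1640 with 10% FBS were plated at 3000 cells/well and treated directly with compound (top 10 μM, 4-fold, 9 concentrations, duplicates).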

[3] = Pharmacokinetics in SD rats, single intravenous injection and oral administration; format: in vivo, SD rat; settings: for bioavailability: PO 10 mg/kg vs IV 3 mg/kg, read-out: F % (bioavailability)
Method: In this assay, the pharmacokinetic characteristics of the compounds of the present application were assayed after administration of some of the compounds of the present application to SD rats by single oral administration and intravenous injection. 1. […] The mixture was stirred, vortexed and/or sonicated. Once a solution was obtained, the vehicle was gradually added to a final volume to reach the target concentration. The solution was vortexed, and sonicated to obtain a homogeneous solution. The solution was filtered through a 0.22 μm PVDF membrane. 2. […] The mixture was stirred, vortexed and/or sonicated. Once a solution was obtained, the vehicle was gradually added to a final volume to reach the target concentration. The solution was vortexed, and sonicated to obtain a homogeneous solution. […] Meanwhile, the IV group was not fasted and the PO group was fasted overnight (>12 hrs) and given food 2 hrs after drug administration. All animals had free access to water. The dosing regimen and pharmacokinetic sampling regimen are given in Table 6 and Table 7 below, respectively. […] Rats were administered according to the above regimen, and blood and brain tissue samples were collected and processed at predetermined time points (collection and processing were performed according to conventional methods in the art). […] The supernatant was diluted 2-fold with ultra-pure water, and the samples were analyzed by LC/MS. Pharmacokinetic parameters was calculated using WinNonlin software. The following pharmacokinetic parameters was calculated from the plasma drug concentration-time data: CL (clearance); Vd (apparent volume of distribution); T1/2 (elimination half-life time); Cmax (peak concentration); Tmax (time to peak); AUC (area under plasma drug concentration-time curve); MRT (mean retention time); F % (bioavailability).

[4] = test system: Ba/F3 ERBB2 A775_G776insYVMA; assay: Efficacy in nude mouse tumor-bearing model of Ba/F3 ERBB2 A775_G776insYVMA; format: in vivo, BALB/c nude mice; settings: for effect on tumor size (in words): 30 mg/kg PO; for T/C (%): 30 mg/kg, QD×14, PO, day 14
Method: In this assay, some compounds of the application were orally administered to a nude mouse tumor-bearing model of Ba/F3 ERBB2 A775_G776insYVMA to study the effect of the compounds of the application on tumor growth.
Preparation of the assay compound: an appropriate weight of the compound to be assayed was weighed, and completely dissolved in an appropriate volume of vehicle (DMSO). The mixture was vortexed or sonicated. Then an appropriate amount of Solutol was added and mixed well. Finally, sterilized drinking water was added and the mixture was mixed by stirring or vortexing to obtain a homogeneous solution or suspension.
Method: All the assays were authorized and agreed by the Animal Welfare Committee. Ba/F3 ERBB2 A775_G776insYVMA in a logarithmic growth period was inoculated subcutaneously into the right back of immunodeficient nude mice (BALB/c nude, female, 6-7 weeks of age, body weight 18±2 g) with 4×10^6 cells/rat. After the tumor grew to 150-200 mm^3, the animals were randomly divided into a treatment group and a control group. For the treatment group, a solution of each assay compound was given, and for the control group, a vehicle solution without the assay compound was given. Both of the treatment group and the control group were administered once a day for about 2 weeks. The dose of each assay article was 30 mg/kg (in terms of effective compound concentration), and the assay compounds were all prepared freshly for use. During the assay, the diameter of loaded tumors was measured twice a week, and the mice were weighed at the same time. The tumor volume (TV) was calculated by the formula: TV=½×a×b^2, where a and b denote length and width, respectively. Relative tumor volume (RTV) was calculated based on the measured results by the formula: RTV=Vt/V0, where V0 is the tumor volume measured at grouping and administration and Vt is the tumor volume at each measurement. The evaluation index of antitumor activity was the relative tumor proliferation rate T/C (%) calculated by the formula: T/C (%)=(TRTV/CRTV)×100%, TRTV: RTV of the administration group; CRTV: RTV of the control group. T and C denote the average tumor volume at a certain time point in the administration group and the control group, respectively.

[5] = biological target: Ba/F3 EGFR D770_N771insSVD cells (Homo sapiens, UniProt P00533, DUP768-770, cells depend on it); assay: Inhibition of cell proliferation, CTG method, Ba/F3 EGFR D770_N771insSVD; format: cell-based; settings: 72 hours, read-out: Ba/F3 EGFR D770_N771insSVD IC50
Chain of Ba/F3 EGFR D770_N771insSVD cells (P00533 with tags, fused parts or gaps DUP768-770): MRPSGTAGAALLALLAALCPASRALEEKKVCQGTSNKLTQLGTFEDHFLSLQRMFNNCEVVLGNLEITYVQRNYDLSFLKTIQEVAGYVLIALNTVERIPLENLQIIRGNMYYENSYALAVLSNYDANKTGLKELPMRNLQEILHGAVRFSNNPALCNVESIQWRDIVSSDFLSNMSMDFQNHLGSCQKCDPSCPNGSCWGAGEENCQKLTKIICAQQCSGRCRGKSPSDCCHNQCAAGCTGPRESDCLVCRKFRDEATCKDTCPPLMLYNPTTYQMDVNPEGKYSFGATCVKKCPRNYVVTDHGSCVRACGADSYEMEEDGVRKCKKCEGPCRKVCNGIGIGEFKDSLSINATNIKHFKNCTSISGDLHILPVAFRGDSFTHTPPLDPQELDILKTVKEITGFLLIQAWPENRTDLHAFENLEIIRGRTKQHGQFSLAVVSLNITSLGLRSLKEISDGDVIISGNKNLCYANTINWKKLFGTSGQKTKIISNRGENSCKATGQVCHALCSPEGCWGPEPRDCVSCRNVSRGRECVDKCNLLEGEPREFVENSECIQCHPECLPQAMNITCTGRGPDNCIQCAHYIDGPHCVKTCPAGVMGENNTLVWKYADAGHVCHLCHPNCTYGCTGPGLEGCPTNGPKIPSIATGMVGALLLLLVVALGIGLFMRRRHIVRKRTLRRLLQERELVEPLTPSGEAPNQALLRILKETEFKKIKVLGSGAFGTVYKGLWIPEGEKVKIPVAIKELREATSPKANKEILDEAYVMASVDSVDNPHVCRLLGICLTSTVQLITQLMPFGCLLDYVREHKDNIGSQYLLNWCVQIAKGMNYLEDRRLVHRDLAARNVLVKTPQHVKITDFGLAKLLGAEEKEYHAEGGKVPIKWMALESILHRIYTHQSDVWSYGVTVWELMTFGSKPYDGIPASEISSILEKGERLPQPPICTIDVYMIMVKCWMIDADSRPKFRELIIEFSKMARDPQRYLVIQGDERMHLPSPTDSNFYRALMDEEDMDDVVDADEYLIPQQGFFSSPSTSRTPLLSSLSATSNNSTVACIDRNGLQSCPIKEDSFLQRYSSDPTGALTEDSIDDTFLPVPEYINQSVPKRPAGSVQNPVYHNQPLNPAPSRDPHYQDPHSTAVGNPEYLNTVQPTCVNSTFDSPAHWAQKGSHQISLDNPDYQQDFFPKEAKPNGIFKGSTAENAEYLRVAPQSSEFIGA
Description: The present application examined the in vitro anti-proliferative activity of the compounds of the present disclosure against in vitro cultured BT474, NCI-N87, Ba/F3-EGFR-VIII and Ba/F3 HER2 A775_G776insYVMA and Ba/F3 EGFR D770_N771insSVD cell lines by CTG method.
Reagents and consumables: RPMI1640 (ThermoFisher, Cat. No. C11875500BT); fetal bovine serum (Hyclone, Cat. No. SV30087.03); 0.25% trypsin-EDTA (ThermoFisher, Cat. No. 25200-072); penicillin-streptomycin (Hyclone, Cat. No. SV30010); DMSO (Amresco, Cat. No. 0231-500ML); CTG assay kit (Promega, Cat. No. G924C); 96-well plate (Corning, Cat. No. 3603); multifunctional plate reader (Perkin Elmer, Cat. No. Envision)
Cell lines: BT474 (from the cell bank of Chinese Academy of Sciences), NCI-N87 (from ATCC), Ba/F3-EGFR-VIII, Ba/F3 HER2 A775_G776insYVMA and Ba/F3 EGFR D770_N771insSVD (all from KYinno Biotechnology (Beijing) Co., Ltd.); all of the above cells were cultured with RPMI1640 medium containing 10% fetal bovine serum, 100 U/mL penicillin, and 100 μg/mL streptomycin in the culture process.
1. The assay compound was dissolved with DMSO to form a stock solution and a gradient dilution was performed, followed by dilution with the corresponding medium to obtain a solution with 5-fold working concentration.
2. Cells in logarithmic growth phase were adjusted to specific cell densities by dilution with culture medium, and 80 μL of cell suspension was added to a 96-well plate, such that plating densities of cells of BT474, NCI-N87, Ba/F3-EGFR-VIII, Ba/F3 HER2 A775_G776insYVMA and Ba/F3 EGFR D770_N771insSVD were all 3000 cells/well. The cells of Ba/F3-EGFR-VIII, Ba/F3 HER2 A775_G776insYVMA and Ba/F3 EGFR D770_N771insSVD were used directly in the next step (treatment with compound), whereas the BT474 and NCI-N87 needed to be cultured overnight in a 37° C., 5% carbon dioxide gas incubator to adhere to the wall, and then treated with compounds.
3. 20 μL of compound solution was added to each well of the 96-well plate that had been inoculated with cells. The highest concentration of the assayed compound was 10 μM, 4-fold serial dilution, a total of 9 concentrations, and duplicate wells. A control group without compound was also set up.
4. The cells were cultured for another 72 hours, and then cell viability was detected by CTG assay kit. Signal values were read with a multifunctional plate reader (Perkin Elmer). GraphPad Prism software was used to create a dose-response curve and IC50 was calculated.

EGFR^WT kinase = EGFR^WT kinase (Homo sapiens, UniProt P00533); assay: EGFR^WT kinase assay (ULight/PT66 TR-FRET); format: biochemical
Chain of EGFR^WT kinase (P00533 25-1210): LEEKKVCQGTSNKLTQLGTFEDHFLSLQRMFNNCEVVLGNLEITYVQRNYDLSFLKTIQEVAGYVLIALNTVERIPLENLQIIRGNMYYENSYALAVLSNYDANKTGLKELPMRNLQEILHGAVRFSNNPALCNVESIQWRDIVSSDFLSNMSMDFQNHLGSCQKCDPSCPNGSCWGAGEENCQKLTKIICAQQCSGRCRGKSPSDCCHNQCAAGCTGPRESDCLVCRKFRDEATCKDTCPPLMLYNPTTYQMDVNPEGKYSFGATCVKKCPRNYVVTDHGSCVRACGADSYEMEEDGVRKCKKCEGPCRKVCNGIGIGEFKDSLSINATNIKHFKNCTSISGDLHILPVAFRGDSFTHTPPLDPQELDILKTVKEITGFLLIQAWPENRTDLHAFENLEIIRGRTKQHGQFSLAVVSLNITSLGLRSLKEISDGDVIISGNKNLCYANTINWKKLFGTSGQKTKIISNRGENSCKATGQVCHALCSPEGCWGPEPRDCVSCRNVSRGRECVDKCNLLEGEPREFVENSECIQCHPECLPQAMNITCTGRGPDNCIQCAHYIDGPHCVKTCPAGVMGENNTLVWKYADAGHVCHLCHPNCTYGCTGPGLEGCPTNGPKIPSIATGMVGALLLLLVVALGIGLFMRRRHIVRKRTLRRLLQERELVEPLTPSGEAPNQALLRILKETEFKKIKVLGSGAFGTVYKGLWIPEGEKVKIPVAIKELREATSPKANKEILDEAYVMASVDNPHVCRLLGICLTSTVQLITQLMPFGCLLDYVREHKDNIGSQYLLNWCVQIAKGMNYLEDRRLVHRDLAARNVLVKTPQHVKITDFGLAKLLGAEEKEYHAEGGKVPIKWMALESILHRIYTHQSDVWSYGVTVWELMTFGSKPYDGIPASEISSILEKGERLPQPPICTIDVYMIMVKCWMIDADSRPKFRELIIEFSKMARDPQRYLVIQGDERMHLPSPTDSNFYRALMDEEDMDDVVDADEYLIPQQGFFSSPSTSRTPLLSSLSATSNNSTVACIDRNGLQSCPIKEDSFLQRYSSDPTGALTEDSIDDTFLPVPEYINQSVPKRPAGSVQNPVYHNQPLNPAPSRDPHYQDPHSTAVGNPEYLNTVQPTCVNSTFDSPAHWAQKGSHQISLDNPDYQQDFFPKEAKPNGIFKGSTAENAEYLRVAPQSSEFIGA
Summary of the method: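 Enzyme preincubated 5 min with compound (11-point 3-fold series, duplicate), then ULight-JAK-1 (Tyr1023) peptide and ATP added at 4× stocks of 400 nM and 600 μM; 120 min reaction at room temperature. PT66 antibody TR-FRET read after 60 min; IC50 fitted from inhibition rates.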

HER2 kinase = biological target: T1, HER2 kinase (Homo sapiens, UniProt P04626); assay: HER2 kinase assay (ULight/PT66 TR-FRET); format: biochemical
T1 construct: purchased Carna Biosciences 08-016
T1 sequence (P04626 23-1255): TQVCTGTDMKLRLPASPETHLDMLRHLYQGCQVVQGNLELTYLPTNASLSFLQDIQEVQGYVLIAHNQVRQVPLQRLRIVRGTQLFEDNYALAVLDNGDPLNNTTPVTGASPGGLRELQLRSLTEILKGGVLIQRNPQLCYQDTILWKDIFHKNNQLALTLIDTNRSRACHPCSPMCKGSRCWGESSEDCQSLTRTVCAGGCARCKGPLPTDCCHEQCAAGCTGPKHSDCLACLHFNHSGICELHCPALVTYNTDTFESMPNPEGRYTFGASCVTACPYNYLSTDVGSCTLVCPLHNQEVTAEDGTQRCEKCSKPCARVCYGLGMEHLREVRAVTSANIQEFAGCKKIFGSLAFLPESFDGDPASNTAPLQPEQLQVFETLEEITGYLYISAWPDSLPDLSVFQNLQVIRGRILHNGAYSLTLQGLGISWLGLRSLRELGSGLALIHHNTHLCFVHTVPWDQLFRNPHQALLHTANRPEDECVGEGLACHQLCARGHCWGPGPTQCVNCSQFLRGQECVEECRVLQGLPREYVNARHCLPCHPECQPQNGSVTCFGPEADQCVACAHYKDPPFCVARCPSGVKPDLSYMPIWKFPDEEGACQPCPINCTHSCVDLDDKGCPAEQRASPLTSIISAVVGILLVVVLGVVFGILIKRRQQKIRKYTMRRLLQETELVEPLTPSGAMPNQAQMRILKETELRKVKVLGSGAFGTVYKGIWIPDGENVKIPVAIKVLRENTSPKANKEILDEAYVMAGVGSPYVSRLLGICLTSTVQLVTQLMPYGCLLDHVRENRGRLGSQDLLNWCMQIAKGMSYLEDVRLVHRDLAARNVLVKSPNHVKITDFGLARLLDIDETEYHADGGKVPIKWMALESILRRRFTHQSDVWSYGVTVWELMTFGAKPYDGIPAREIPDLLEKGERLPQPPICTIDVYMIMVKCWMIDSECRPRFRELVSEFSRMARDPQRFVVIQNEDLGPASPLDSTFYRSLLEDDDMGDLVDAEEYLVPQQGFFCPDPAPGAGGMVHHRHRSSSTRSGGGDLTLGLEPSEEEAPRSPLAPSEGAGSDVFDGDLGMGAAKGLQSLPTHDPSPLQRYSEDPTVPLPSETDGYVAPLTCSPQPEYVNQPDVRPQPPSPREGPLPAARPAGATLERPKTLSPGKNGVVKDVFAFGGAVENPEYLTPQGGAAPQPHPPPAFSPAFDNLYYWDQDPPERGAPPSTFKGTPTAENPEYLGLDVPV
Summary of the method: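 HER2 kinase preincubated 5 min with compounds (11-point 3-fold series, duplicates), then reacted 120 min at room temperature with ATP and ULight-poly GT peptide, each prepared at 4× working concentration (40 μM ATP, 400 nM substrate, 40 nM kinase). PT66 antibody added for 60 min, TR-FRET read; IC50 from inhibition curves.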

[6] = whole blood, read-out: Blood drug concentration
[7] = brain, NA: Exposure was too low to be counted, read-out: Brain tissue concentration
[8] = 72 hours, read-out: Ba/F3 HER2 A775-G776insYVMA IC50
[9] = SD, rat, whole blood, IV 3 mg/kg
[10] = SD, rat, whole blood, NA: Exposure was too low to be counted
[11] = SD, rat, whole blood, PO 10 mg/kg, NA: Exposure was too low to be counted
[12] = SD, rat, in vivo, PO 10 mg/kg, NA: Exposure was too low to be counted

Compound	concentration at 2 h [1, 6] [ng/mL]	Kp at 2 h [1]	concentration at 2 h [1, 7] [ng/g]	GI50 [2, 8] [nM]	Cl_obs ([3]; IV 3 mg/kg) [mL/min/kg]	AUC(0-inf) [3, 9] [ng·h/mL]	Vd [3, 9] [L/kg]	bioavailability [3, 10] [%]	AUC(0-inf) [3, 11] [ng·h/mL]	effect on tumor size (in words) [4]	T/C (%) [4] [%]	GI50 [5] [nM]	IC50 (EGFR^WT kinase) [nM]	IC50 (HER2 kinase) [nM]	further results
CCOc1cc2ncc(C#N)c(Nc3ccc(OCc4ccccn4)c(Cl)c3)c2cc1NC(=O)/C=C/[C@H]1CCCN1C [PYROTINIB, pyrotinib, reference compound]	884	0.0291	25.8	10 to 100	6.04 ± 0.63	8340 ± 890	1.81 ± 0.26	10.1 ± 4	2810 ± 1110	still remain significant growth	38.3				AUC(0-t) [3, 9]: 8310 ± 892 ng·h/mL; half-life [3, 9]: 3.45 ± 0.24 h; AUC(0-t) [3, 11]: 2790 ± 1110 ng·h/mL; Cmax [3, 11]: 246 ± 76 ng/mL; Tmax [3, 11]: 4.33 ± 2.52 h; half-life [3, 11]: 3.6 ± 0.37 h
COCCN1CCC[C@@H]1/C=C/C(=O)Nc1ccc2ncnc(Nc3ccc(OCc4cccc(F)c4)c(Cl)c3)c2c1OC [Example 26]				1 to 5								10 to 100	10 to 100	< 10	
CN1CCC[C@@H]1/C=C/C(=O)Nc1ccc2ncnc(Nc3ccc(OCc4ccccn4)c(Cl)c3)c2c1OCCCF [Example 10, (R,E)-N-(4-((3-chloro-4-(pyridin-2-ylmethoxy)phenyl)amino)-5-(3-fluoropropoxy)quinazolin-6-yl)-3-(1-methylpyrrolidin-2-yl)acrylamide]				1 to 5								10 to 100	< 10	< 10	
CCOc1cc2ncc(C#N)c(Nc3ccc(OCc4ccccn4)c(Cl)c3)c2cc1NC(=O)/C=C/CN(C)C [NERATINIB, neratinib, reference compound]	440	0.0366	14.4		20.8 ± 2.0	2420 ± 252	7.94 ± 1.71	18.2 ± 7.89	1470 ± 638	still remain significant growth	45.9				GI50 ([2]; read-out: Ba/F3 HER2 A775-G776insYVMA IC50, 72 hours): 10 to 100 nM; AUC(0-t) ([3]; SD, rat, in vivo, IV 3 mg/kg): 2390 ± 267 ng·h/mL; half-life ([3]; SD, rat, in vivo, IV 3 mg/kg): 4.38 ± 0.55 h; AUC(0-t) [3, 12]: 1470 ± 637 ng·h/mL; Cmax [3, 12]: 201 ± 66 ng/mL; half-life [3, 12]: 2.97 ± 0.27 h
